Where two headings read alike, the source gives them in different places.
Test system: RSV A2
Assay: RSV antiviral cytopathic effect (CPE) assay
Type: cell-based
Conditions: human respiratory syncytial virus, HEp-2, 120 h, HEp2 cells infected with RSV A2 (moi ~0.01), 5 days, MTT readout
Protocol: Compounds of the invention were tested for their antiviral activity against respiratory syncytial virus. Cytopathic effect (CPE) assays were performed essentially as described in the literature (see for example Watanabe et al, 1994, J. Virological Methods, 48:257). Serial dilutions of the test compounds were made in 96 well plates. HEp2 cells (1.0×10^4 cells/well) were infected with RSV at a low multiplicity of infection (e.g. RSV A2 at an moi of ˜0.01) and added to plates to assess antiviral activity. Uninfected HEp2 cells were used to assess compound cytotoxicity. Assays were incubated for 5 days at 37° C. in a 5% CO2 atmosphere. The extent of CPE was determined via metabolism of the vital dye 3-(4,5-dimethylthiaxol-2-yl)-2,5-diphenyltetrazolium bromide (MTT). MTT (1 mg/ml) was added to each well and plates incubated for 2 hours incubation at 37° C. Wells were aspirated, iso-propanol (200 μL) was added and absorbance values read at 540/650 nm. Compound concentrations that inhibited CPE by 50% (EC50) and developed cytotoxicity (CC50) were calculated using non-linear regression analysis.
Representative mean EC50 values obtained are also provided. In the inventors' experience, replicate EC50 values usually fall within three standard deviations of the mean.

[1] = read-out: Activity Range (RSV A2 EC50)
[2] = mean EC50, read-out: RSV A2 EC50

COc1ccc(C23Cn4c(Cl)ccc4C(=O)N2CCN3C(=O)c2conc2C)cc1 (stereo not shown) [Compound 23]
EC50 [1]: < 49 nM | EC50 [2]: 8 nM

COc1ccc(C23Cn4cc(-c5ccccn5)cc4C(=O)N2CCN3C(=O)c2conc2C)cn1 (stereo not shown) [Compound 128]
EC50 [1]: 50 to 99 nM | EC50 [2]: 64 nM

Cc1nocc1C(=O)N1CCN2C(=O)c3cccn3CC12C(C)(C)C (stereo not shown) [Compound 21]
EC50 [1]: > 10000 nM

Cc1ccc(C23Cn4cc(-c5ccccn5)cc4C(=O)N2CCN3C(=O)c2conc2C)cn1 (stereo not shown) [Compound 127]
EC50 [1]: < 49 nM | EC50 [2]: 27 nM

Cc1cnc(C23Cn4cc(-c5cccnc5)cc4C(=O)N2CCN3C(=O)c2conc2C)cn1 (stereo not shown) [Compound 121, 1-[(3-methyl-1,2-oxazol-4-yl)carbonyl]-10a-(5-methylpyrazin-2-yl)-7-(pyridin-3-yl)-2,3,10,10a-tetrahydro-1H,5H-imidazo[1,2-a]pyrrolo[1,2-d]pyrazin-5-one]
EC50 [1]: < 49 nM | EC50 [2]: 42 nM

COc1ccc(C23Cn4cccc4C(=O)N2CCN3C(=O)c2cocn2)cc1 (stereo not shown) [Compound 8]
EC50 [1]: 500 to 10000 nM | EC50 [2]: 1800 nM

COc1ccc(C23Cn4cc(-c5cnccc5C)cc4C(=O)N2CCN3C(=O)c2conc2C)cc1 (stereo not shown) [Compound 92]
EC50 [1]: > 10000 nM

Cc1nocc1C(=O)N1CCN2C(=O)c3cc(-c4ccccc4)nn3CC12c1ccc(Cl)cc1 (stereo not shown) [Compound 64]
EC50 [1]: 500 to 10000 nM | EC50 [2]: 8600 nM

Cc1nocc1C(=O)N1CCN2C(=O)c3ccc(CO)n3CC12c1ccc(Cl)cc1 (stereo not shown) [Compound 28]
EC50 [1]: 50 to 99 nM | EC50 [2]: 88 nM

Cc1nocc1C(=O)N1CCN2C(=O)c3cc(-c4cccnc4)cn3CC12c1ccc(Cl)cc1 (stereo not shown) [Compound 30, 10a-(4-chlorophenyl)-1-[(3-methyl-1,2-oxazol-4-yl)carbonyl]-7-(pyridin-3-yl)-2,3,10,10a-tetrahydro-1H,5H-imidazo[1,2-a]pyrrolo[1,2-d]pyrazin-5-one]
EC50 [1]: < 49 nM | EC50 [2]: 36 nM

COc1ccc(C23Cn4c(C#N)ccc4C(=O)N2CCN3C(=O)c2conc2C)cc1 (stereo not shown) [Compound 106, 10a-(4-methoxyphenyl)-1-[(3-methyl-1,2-oxazol-4-yl)carbonyl]-5-oxo-2,3,10,10a-tetrahydro-1H,5H-imidazo[1,2-a]pyrrolo[1,2-d]pyrazine-8-carbonitrile]
EC50 [1]: < 49 nM | EC50 [2]: 4.1 nM

Cc1nocc1C(=O)N1CCN2C(=O)c3cc(C(=O)N(C)C)cn3CC12c1ccc(Cl)cc1 (stereo not shown) [Compound 38, 10a-(4-chlorophenyl)-N,N-dimethyl-1-[(3-methyl-1,2-oxazol-4-yl)carbonyl]-5-oxo-2,3,10,10a-tetrahydro-1H,5H-imidazo[1,2-a]pyrrolo[1,2-d]pyrazine-7-carboxamide]
EC50 [1]: > 10000 nM

Cc1nocc1C(=O)N1CCN2C(=O)c3cccn3CC12c1cccnc1 (stereo not shown) [Compound 101, 1-[(3-methyl-1,2-oxazol-4-yl)carbonyl]-10a-(pyridin-3-yl)-2,3,10,10a-tetrahydro-1H,5H-imidazo[1,2-a]pyrrolo[1,2-d]pyrazin-5-one]
EC50 [1]: 500 to 10000 nM | EC50 [2]: 730 nM

COc1ccc(C23Cn4c(C)ccc4C(=O)N2CCN3C(=O)c2conc2C)cn1 (stereo not shown) [Compound 152]
EC50 [1]: < 49 nM | EC50 [2]: 5.8 nM

O=C(c1cocn1)N1CCN2C(=O)c3cccn3CC12c1ccc(F)cc1 (stereo not shown) [Compound 7]
EC50 [1]: 100 to 499 nM | EC50 [2]: 410 nM

Cc1nocc1C(=O)OCc1ccc(C23Cn4cccc4C(=O)N2CCN3C(=O)c2conc2C)cc1 (stereo not shown) [Compound 62, 4-{1-[(3-methyl-1,2-oxazol-4-yl)carbonyl]-5-oxo-2,3-dihydro-1H,5H-imidazo[1,2-a]pyrrolo[1,2-d]pyrazin-10a(10H)-yl}benzyl 3-methyl-1,2-oxazole-4-carboxylate]
EC50 [1]: < 49 nM | EC50 [2]: 48 nM

COc1ccc(C23Cn4cccc4C(=O)N2CCN3C(=O)c2c(C)noc2C)cc1 (stereo not shown) [Compound 53]
EC50 [1]: 100 to 499 nM | EC50 [2]: 260 nM

CCN(CC)S(=O)(=O)c1ccc(C23Cn4cccc4C(=O)N2CCN3C(=O)c2conc2C)cc1 (stereo not shown) [Compound 10]
EC50 [1]: > 10000 nM

Cc1ccc(C23Cn4cc(-c5ccncc5)cc4C(=O)N2CCN3C(=O)c2conc2C)cn1 (stereo not shown) [Compound 135]
EC50 [1]: < 49 nM | EC50 [2]: 9.1 nM

Source: patent publication US8604034B2, “Substituted imidazo[1,2-α]pyrrolo[1,2-d]pyrazines for treating respiratory syncytial virus (RSV) infections” (Biota Scientific Management Pty Ltd., priority 2010, dated 2013)
